The record followed here is a melting point compilation (Tetko et al.).

For the compound `O=C(Nc1nc(-c2ccc(Cl)c(Cl)c2)cs1)C(Cl)c1ccccc1` (configuration not stated), the melting point lay in the range of 128 to 130 °C.

`O=S1(=O)CCCN1c1ccc(Br)cc1` returned a melting point of 108 to 110 °C.

Take `Ic1ccc2ncccc2c1`: the melting point lay within 86 to 88 °C.

Compound `CCc1ccc(-n2nc(C(=O)O)c3c2CCC3)cc1` registered a melting point of 183 to 185 °C.

In turn, `CCCS(=O)(=O)Nc1cc(N)c(F)cc1F` came in with a melting point of 95 to 97 °C.

As to `Cc1noc(C)c1CCC(=O)O`, the melting point was 109 to 111 °C.

In turn, `O=Cc1cc(Br)ccc1OCc1ccccn1` registered a melting point of 138 to 140 °C.

`Nc1ncncc1-c1ccccc1` came in with a melting point of 155 to 157 °C.

Turning to `CC(C)(C)OC(=O)Nc1ccc(O)cc1`, the melting point lay in the range of 131 to 133 °C.

In the case of `CC(C)C(C(N)=O)c1cccnc1` (configuration not stated), the melting point fell in the range of 176 to 178 °C.

With `CC(C)CN1CCCCC1C(=O)O` (configuration not stated), the melting point fell in the range of 198 to 200 °C.

In turn, `NC(=O)CCn1ccnc1` showed a melting point of 137 to 139 °C.

In turn, `O=c1[nH]c(-c2cccnc2)no1` gave a melting point of 234 to 236 °C.

`CCCCS(=O)(=O)Nc1ccc(S(=O)(=O)Cl)cc1` returned a melting point of 123 to 125 °C.

In the case of `Nc1ccccc1C(=O)N1CCOCC1`, the melting point is 74 to 76 °C.

In the case of `Nc1ccc2c(c1)OC1(CCCCC1)O2`, the melting point was in the range of 65 to 67 °C.

In turn, `O=C1CC2(Cc3ccccc3C2)C(=O)N1` showed a melting point of 173 to 175 °C.

`CC1=C(C(=O)O)C(=O)OC1(C)C` gave a melting point of 111 to 113 °C.

For `CC(=O)c1cc(-c2ccccc2)ccc1O`, the melting point lay within 49 to 51 °C.

As to `CN(C)C(=O)c1cn[nH]c1N`, the melting point lay in the range of 167 to 169 °C.

As to `Nc1cc(-c2ccc(I)cc2)no1`, the melting point lay within 159 to 161 °C.

`O=Cc1cccc(OCC(F)(F)F)c1` came in with a melting point of 29 to 31 °C.

As to `O=S(=O)(Cl)c1cc(Br)c(F)cc1F`, the melting point was in the range of 34 to 36 °C.

The compound `COc1ccc(C(=O)O)cc1S(=O)(=O)Cl` came in with a melting point of 153 to 155 °C.

`CC(C)(C)OC(=O)N1CCN(C(N)=S)CC1` displayed a melting point of 168 to 170 °C.

With `O=C1NC(=O)C2(Cc3ccccc3C2)N1`, the melting point is 264 to 266 °C.

Consider `COc1ccc2c(O)c(C(=O)O)cnc2c1`, for which the melting point lay in the range of 269 to 271 °C.

Consider `CCOc1c(F)cccc1C(=O)O`, for which the melting point was 43 to 45 °C.

`Cc1cc(-c2cc(C(=O)O)c3c(C)noc3n2)c(C)s1`: the melting point is 256 to 258 °C.

For `C=CCOc1ccc(C(=O)c2ccccc2)c(O)c1`, the melting point fell in the range of 67 to 70 °C.

Compound `O=C(CCl)Nc1ccccc1C(=O)Nc1ccc2c(c1)OCO2` showed a melting point of 169 to 171 °C.

Take `O=c1[nH]c2ccccc2c(O)c1[N+](=O)[O-]`: the melting point fell in the range of 209 to 211 °C.

Compound `O=C(CCl)Nc1cc2c(cc1[N+](=O)[O-])OCO2` returned a melting point of 142 to 144 °C.

Turning to `O=C(O)CNC(=O)c1cc2ccccc2[nH]1`, the melting point was 231 to 233 °C.

`NC(=S)Cc1cn2ccccc2n1` had a melting point of 144 to 146 °C.

Take `CN1C(=CC=O)C(C)(C)c2ccccc21`: the melting point is 93 to 95 °C.

Compound `Nc1ccnc(Sc2ccccn2)c1` gave a melting point of 99 to 101 °C.

Compound `CC(C)CC(C)n1nccc1N` (configuration not stated) returned a melting point of 55 to 57 °C.

Regarding `Cc1ccccc1Nc1nc(Cl)c(C=O)s1`, the melting point is 153 to 155 °C.

As to `Cc1cc(S(N)(=O)=O)c(C)o1`, the melting point is 86 to 88 °C.

In turn, `Cc1cc(Cl)ccc1S(=O)(=O)Cl` registered a melting point of 54 to 56 °C.

Consider `Nc1nncc(-c2ccccc2F)n1`, for which the melting point lay within 204 to 206 °C.

As for `O=C(Nc1ccc(F)cc1)NC1CCNC1` (configuration not stated), the melting point was in the range of 150 to 152 °C.

Turning to `CS(=O)(=O)c1ccc(N)cn1`, the melting point lay in the range of 171 to 173 °C.

The compound `O=S(=O)(Cl)c1cnn(-c2ccccc2F)c1` yielded a melting point of 81 to 83 °C.

On to `CN1CCC(C(=O)O)c2ccccc21` (configuration not stated), for which the melting point was in the range of 99 to 101 °C.

As to `CC(C)CC(CCC(=O)O)C(=O)O` (configuration not stated), the melting point was 66 to 68 °C.

With `CCCCn1c(N)c(NCc2ccccc2)c(=O)[nH]c1=O`, the melting point is 207 to 209 °C.

`O=[N+]([O-])c1cc(Cl)c(S(=O)(=O)Cl)c(Cl)c1` displayed a melting point of 92 to 94 °C.

Compound `N#Cc1cnn(-c2ccccc2)c1N` registered a melting point of 137 to 139 °C.

`Cc1nn(-c2ccc(F)cc2)c(C)c1C=O`: the melting point was in the range of 128 to 130 °C.

Regarding `CCn1nc(C)c(C(=O)O)c1C(F)F`, the melting point lay within 134 to 136 °C.

In turn, `O=C(O)c1cccc(N2C(=O)C=CC2=O)c1` showed a melting point of 231 to 233 °C.

The compound `COc1cc(C=O)ccc1OCC(N)=O` registered a melting point of 155 to 157 °C.

Take `Cc1c(NS(=O)(=O)c2cc(C(=O)O)cc(Cl)c2Cl)c(=O)n(-c2ccccc2)n1C`: the melting point is 155 to 157 °C.

`NCCC(O)(c1ccccc1)C(F)(F)F` (configuration not stated): the melting point was 110 to 112 °C.

As to `O=C(O)/C=C/c1cnn(Cc2ccccc2)c1`, the melting point was in the range of 118 to 120 °C.

For the compound `C=CCNS(=O)(=O)C(C)(C)C`, the melting point was in the range of 53 to 55 °C.

`Sc1nnc(Nc2cccc(Cl)c2)s1` yielded a melting point of 210 to 212 °C.

In turn, `CS(=O)(=O)c1cccc(Oc2ccc(N)cc2)c1` yielded a melting point of 103 to 105 °C.

Consider `OC1(Cc2cccc(F)c2)CCNC1` (configuration not stated), for which the melting point was 59 to 61 °C.

`O=C(O)CCn1ccc2ccccc21` yielded a melting point of 49 to 51 °C.

In turn, `NN1CCCC1=O` gave a melting point of 47 to 49 °C.

For `CCOC(=O)c1nc2ccc(Br)cc2c(=O)[nH]1`, the melting point lay within 261 to 263 °C.

The compound `ClCc1cc(Br)c2c(c1)OCO2` came in with a melting point of 100 to 102 °C.

As for `Cc1cc(C(=O)O)c(C)s1`, the melting point lay in the range of 114 to 116 °C.

`NCc1nnc2n1CCCC2` gave a melting point of 99 to 101 °C.

In turn, `CC(C)c1ccc(SCC(=O)O)cc1` yielded a melting point of 66 to 68 °C.

For `Cc1cccc(C)c1NC(=O)C(=O)O`, the melting point was 163 to 165 °C.

Regarding `NS(=O)(=O)CC1CCC1`, the melting point lay within 97 to 99 °C.

On to `O=C(O)c1ccc2c(=O)n(-c3ccccc3F)c(=O)[nH]c2c1`, for which the melting point lay within 343 to 345 °C.

`O=C(O)c1ccc(CS(=O)(=O)C(F)F)cc1` displayed a melting point of 218 to 220 °C.

`NCc1ccc(NC(=O)c2ccc(F)cc2)cc1` yielded a melting point of 135 to 137 °C.

Turning to `Cc1nn(Cc2ccccc2)c(C)c1C(=O)O`, the melting point is 137 to 139 °C.

Consider `Cc1cc(C(F)(F)F)c(C#N)c(SCC(=O)O)n1`, for which the melting point was 132 to 134 °C.

In the case of `NC(=NO)c1cnn2cccnc12`, the melting point fell in the range of 177 to 179 °C.

As for `O=C(O)c1cc([N+](=O)[O-])cn1Cc1sccc1Br`, the melting point was in the range of 190 to 192 °C.

`CCN(CC)S(=O)(=O)c1ccc(NC)c(N)c1`: the melting point was 119 to 121 °C.

The compound `COc1ccc(C2C(C(=O)O)CCC(=O)N2c2ccc(OC)cc2)cc1` (configuration not stated) displayed a melting point of 178 to 180 °C.

For `COc1cc(C(=O)O)ccc1OCCC(C)C`, the melting point lay in the range of 92 to 94 °C.

Compound `Oc1cccc2ccc(N3CCCCC3)nc12` yielded a melting point of 69 to 71 °C.

Consider `Nc1cccnc1C(=O)O`, for which the melting point was in the range of 218 to 220 °C.

`COC(=O)c1cc(Cl)nc2ccccc12` returned a melting point of 87 to 89 °C.

With `Cc1cccc(-c2nc(C(=O)O)c(C)[nH]2)c1`, the melting point is 149 to 151 °C.

In turn, `CC(C)(O)c1ccc(O)cc1` returned a melting point of 104 to 106 °C.

Take `Cc1ccc(NC(=O)CC(N)=NO)cc1`: the melting point lay within 168 to 170 °C.

In turn, `COC(=O)c1ccc(C=O)o1` gave a melting point of 79 to 81 °C.

Take `O=C1NCC(=O)N2CCOCC12` (configuration not stated): the melting point is 170 to 172 °C.

For `Cc1ccc(N)cc1S(=O)(=O)Nc1ccc(Cl)cc1`, the melting point fell in the range of 144 to 146 °C.

`O/N=C(\Cc1nccn1C(F)F)c1ccccc1`: the melting point is 150 to 152 °C.

Take `Cc1cccc(C(=O)O)c1NC(=O)c1ccncc1`: the melting point lay in the range of 249 to 251 °C.

Take `COc1ccc(C(=O)O)cc1S(=O)(=O)Nc1ccc(Br)cc1`: the melting point lay within 257 to 259 °C.

Compound `COCCN1C(=O)CC(=O)NC1=S` had a melting point of 148 to 150 °C.

Compound `NC(=O)Cc1csc(N)n1` registered a melting point of 158 to 165 °C.

For the compound `Nc1cccc(S(=O)(=O)Nc2nccs2)c1`, the melting point was in the range of 170 to 172 °C.

`COC(=O)c1cnc(N)nc1` registered a melting point of 209 to 211 °C.

`Oc1ncc(F)cc1I` showed a melting point of 119 to 121 °C.

The compound `COc1cc(NC(C)=O)c(C(=O)O)cc1OC` displayed a melting point of 229 to 231 °C.

In turn, `COC(=O)c1c(O)cc(=O)n2c1CCC2` yielded a melting point of 167 to 169 °C.

For the compound `CC(=O)N1CCC(N)CC1`, the melting point lay in the range of 19 to 21 °C.

In the case of `O=c1[nH]c(-c2ncccn2)no1`, the melting point lay in the range of 221 to 223 °C.

The compound `O=C(O)c1ccc(O)c2ccccc12` yielded a melting point of 184 to 186 °C.

Compound `Nc1cccc(NC(=O)NCc2ccncc2)c1` returned a melting point of 159 to 161 °C.

`Cc1scc(C(=O)O)c1C`: the melting point was in the range of 139 to 141 °C.

As for `NC(=O)c1ccc(CCl)cc1`, the melting point lay within 178 to 180 °C.

With `Cc1ccc(-c2csc(=O)[nH]2)cc1`, the melting point was in the range of 219 to 221 °C.

Take `CS(=O)(=O)OCCn1cnc2ccsc2c1=O`: the melting point was in the range of 112 to 114 °C.

In turn, `Cc1cccc(C(C)C)c1NC(=O)C(C)Cl` (configuration not stated) returned a melting point of 126 to 128 °C.

`Cn1c(=O)n(C)c2cc(Br)ccc21`: the melting point is 163 to 165 °C.

Turning to `Nc1nc(C(F)(F)F)no1`, the melting point was in the range of 97 to 99 °C.

In turn, `N#CCCn1cnc2ccccc2c1=O` displayed a melting point of 142 to 144 °C.

As for `COc1cccc(C(N)=S)c1OC`, the melting point was in the range of 146 to 148 °C.

In turn, `O=C(O)c1cc(N2CCCC2=O)ccc1F` had a melting point of 254 to 256 °C.

Regarding `O=C(O)C1CC1c1ccc(OC(F)F)cc1` (configuration not stated), the melting point was 73 to 75 °C.

With `COc1ccc(-n2nc(C(=O)O)cc2C)cc1`, the melting point was 149 to 151 °C.

Compound `O=C(CCl)c1cc(Cl)sc1Cl` displayed a melting point of 43 to 45 °C.

For `CC(=O)c1ccc(S(=O)(=O)N(C)CCCC(=O)O)cc1`, the melting point was in the range of 80 to 82 °C.

For `CCn1c(CCC(=O)O)nc2cc(S(=O)(=O)N(C)C)ccc21`, the melting point fell in the range of 186 to 188 °C.

In turn, `NC1CCN(c2ccc(C(F)(F)F)cc2)C1` (configuration not stated) registered a melting point of 60 to 62 °C.

Take `CC(O)CS(C)(=O)=O` (configuration not stated): the melting point lay within 51 to 53 °C.

Consider `CSCc1cc(C(=O)O)sc1C`, for which the melting point was 135 to 137 °C.

With `Nc1nc2ccc(F)cn2n1`, the melting point was 166 to 168 °C.
